Data taken from patent US20160176914A1, “GLYCOSYLATED CARDIOTONIC STEROIDS” (priority 2013, published 2016).
Like-named read-outs stand apart in the source and are kept apart here.

Legend:
α1β1 Na+/K+ ATPase = α1β1 Na+/K+ ATPase (Homo sapiens, UniProt P05023); assay: Na+/K+ ATPase pump binding, α1β1 isoform (radioactive displacement assay)
Experimental: (§1) α1/2/3-Na^+/K^+ ATPase pump binding data was assessed for compounds of Table 1.
(§2) Further, from the results, a strong correlation between cancer cell cytotoxicity and α1/3-Na^+/K^+ ATPase pump binding selectivity was observed (see: α-L-amiceto-mono-, di- and tri-saccharides; Scheme 1). In addition, it was observed that mono-saccharides have improved activity and α1/2/3-isoform selectivity. […] The Na^+/K^+ ATPase binding data also correlates with the cytotoxicity data, which can be seen in the binding data of compounds 1.5-1.7 to all three isomers (α1β1/α2β1/α3β1), which decreases proportionally the MTT data (Table 1).

α2β1 Na+/K+ ATPase = α2β1 Na+/K+ ATPase (Homo sapiens, UniProt P50993); assay: Na+/K+ ATPase pump binding, α2β1 isoform (radioactive displacement assay)
Experimental: as §1, §2

α3β1 Na+/K+ ATPase = α3β1 Na+/K+ ATPase (Homo sapiens, UniProt P13637); assay: Na+/K+ ATPase pump binding, α3β1 isoform (radioactive displacement assay)
Experimental: as §1, §2

NCI-H460 cells [1] = assay: cells; format: cell-based, Human; conditions: Homo sapiens
Experimental: (§3) Human non-small cell lung cancer cells (NCI-H460) were purchased from the American Type Culture Collection (Manassas, Va.). NCI-H460 cells were cultured in RPMI 1640 medium supplemented with 10% bovine fetal serum (FBS), 2 mM L-glutamine and 100-units/ml penicillin/streptomycin. All experiments with NCI-H460 cells were performed in medium enriched with 1% FBS serum, 2 mM L-glutamine and 100-units/ml penicillin/streptomycin. 1% FBS was used due to existing concerns about digitoxin binding to serum proteins.
Cells were seeded overnight in 96 well plates at a concentration of 1×10^4 cells/well, and then treated for 48 h with a log10 scale dilution series of the glycosylated CS compounds (e.g., digitoxin or D6-MA) dissolved in sterile filtered DMSO. Subsequently, 10 μl of 5 mg/ml MTT reagent was added to each well and then incubated for 4 h at 37° C. Isopropanol acidified with 0.04 N HCl was used to dissolve converted dye. Absorbance at 570 nm was measured using an Automated Microplate Reader ELx800 (BioTek, Winooski, Vt.). Each experiment was conducted 4 times with 4 replicate wells per concentration.
(§4) All results are presented as mean±standard deviation. For cell viability, ATPase activity and apoptosis assays, dose-response curves and concentrations that caused 50% effect (i.e. IC50) were calculated for the prepared compounds listed in Tables 1-3 in all the cell lines tested using non-linear regression analysis in GraphPad Prism 5.0 (San Diego, Calif.). Two-way analysis of variance (ANOVA) and unpaired two-tailed Student's t-test with α=0.05 were performed to compare the effect of compounds and administered dose on cell viability, apoptosis and quantified protein expression data. Post-hoc Tukey-Kramer HSD tests were conducted on significant ANOVA results. Results were considered significant when p≦0.05.

NCI-H460 cells [2] = assay: Apoptosis assay (Hoechst 33342); format: cell-based; conditions: Homo sapiens, read-out: Anticancer Apoptosis GI50
Experimental: as §3
Cells were seeded overnight in 12 or 24 well plates at a concentration of 1×10^5 cell/ml and subsequently treated with different concentrations of the glycosylated CS compounds for 24 h. After treatment, cells were incubated with […] of Hoechst 33342 for 30 min and analyzed for apoptosis by scoring the percentage of cells having intensely condensed chromatin and/or fragmented nuclei using fluorescence microscopy (Leica Microsystems, Bannockburn, Ill.). Approximately 1,000 nuclei from ten random fields were analyzed for each sample. The apoptotic index was calculated as the percentage of cells with apoptotic nuclei over total number of cells.
as §4

HCMV = assay: Anti-CMV activity assay, inhibition of HCMV replication in infected HFFs; format: cell-based, human Cytomegalovirus (HCMV); conditions: for SI (selectivity index, CC50/EC50): CC50 noninfected HFFs / EC50 infected HFFs
Experimental: It has been observed that the infection of human foreskin fibroblasts (HFF) cells with HCMV causes an up regulation of the α3-isoform of the Na^+/K^+-Pump. Therefore the inhibition of HCMV replication by the compounds described herein was tested using procedure described by Cai, H. et al., in Med. Chem. Lett. 2014, 5, 395-399, which is incorporated by reference in its entirety. Generally, inhibition of Towne HCMV: pp28-luciferase activity was measured in cell lysates of HCMV-infected HFFs collected at 72 h post infection (hpi). Virus DNA yield in supernatants of HCMV-infected cells collected at 96 hpi was measured by real-time PCR. Plaque reduction assay performed at 8 days postinfection. Data represent mean values (±SD) of triplicate determinations from three independent experiments.
Inhibition of TB40 HCMV: HFFs were infected with HCMV-TB40 strain at MOI of 1 pfu/cell and treated with compounds listed in Tables 1-3 for 3 days.
(§5) The glycosylated cardiotonic steroid compounds were tested for their anti-cytomegalovirus (CMV) activity. Specifically, the compounds were tested for the ability to inhibit HCMV replication. For each compound, the anti-HCMV activity in infected HFFs was expressed as EC50, whereas cytotoxicity in noninfected HFFs was expressed as CC50. Selectivity index (SI), defined as CC50/EC50, was calculated for each compound.

[3] = Cytotoxicity in noninfected HFFs (MTT); format: cell-based, human; conditions: human
Experimental: as §5

noninfected HFFs = assay: Cytotoxicity in noninfected HFFs (MTT); format: cell-based, human
Experimental: as §5

[4] = NCI-H460, 48 h, read-out: Anticancer MTT IC50
[5] = anti-HCMV activity in infected HFFs, read-out: EC50

Row | Compound | Kd (α1β1 Na+/K+ ATPase) [nM] | Kd (α2β1 Na+/K+ ATPase) [nM] | Kd (α3β1 Na+/K+ ATPase) [nM] | IC50 (NCI-H460 cells [1]; [4]) [nM] | GI50 (NCI-H460 cells [2]; NCI-H460, 24 h) [nM] | SI (selectivity index, CC50/EC50) (HCMV) | EC50 (HCMV; Human betaherpesvirus 5) [nM] | CC50 [3] [nM] | EC50 (HCMV; [5]) [nM] | CC50 (noninfected HFFs) [nM] | further results
1 | CC1O[C@@H](O[C@H]2CCC3(C)C(CC[C@@H]4C3CCC3(C)[C@@H](C5=CC(=O)OC5)CC[C@]43O)C2)C(O)C(O)[C@H]1O (stereo partly drawn) [Compound 1.2, digitoxigenin α-L-rhamnopyranoside] | 27 | 23 | 19 | 47 | 2 | 173 | 4.77 ± 0.23 | 664 ± 185 |  |  | SI (selectivity index, CC50/EC50) (HCMV; listed as α-L-Rhamnose (1.2)): 139.25
2 | CC1O[C@@H](O[C@H]2CCC3(C)C(CC[C@@H]4C3CCC3(C)[C@@H](C5=CC(=O)OC5)CC[C@]43O)C2)CC[C@H]1O (stereo partly drawn) [Compound 1.5, digitoxigenin α-L-amecitopyranoside] | 56 | 38 | 26 | 48 | 3 | 139 | 3.77 ± 0.08 | 655 ± 177 |  |  | SI (selectivity index, CC50/EC50) (HCMV; listed as α-L-Amicetose (1.5)): 173.61
3 | CC1OC(OC2CCC(OC3CCC(OC4CCC5(C)C(CCC6C5CCC5(C)C(C7=CC(=O)OC7)CCC65O)C4)OC3C)OC2C)CCC1O (stereo not drawn) [Compound 1.7] | 670 | 149 | 736 | 3960 |  |  |  |  |  |  | 
4 | C[C@H]1O[C@@H](O[C@H]2[C@@H](O)C[C@H](O[C@H]3[C@@H](O)C[C@H](O[C@H]4CC[C@@]5(C)[C@H](CC[C@@H]6[C@@H]5CC[C@]5(C)[C@@H](C7=CC(=O)OC7)CC[C@]65O)C4)O[C@@H]3C)O[C@@H]2C)C[C@H](O)[C@@H]1O [Digitoxin, reference compound] |  |  |  |  |  | 120.46 | 23.3 ± 0.67 | 2810 ± 668 |  |  | Kd (α1β1 Na+/K+ ATPase; first KD column of Table 4, read-out: Na+/K+ATPase inhibition KD, α1β1): 80 nM; Kd (α2β1 Na+/K+ ATPase; second KD column of Table 4, read-out: Na+/K+ATPase inhibition KD, α2β1): 38 nM; Kd (α3β1 Na+/K+ ATPase; third KD column of Table 4, head printed α1β1 a second time, read-out: Na+/K+ATPase inhibition KD, α1β1): 36 nM; IC50 (NCI-H460 cells [1]; NCI-H460, Table 4, 48 h treatment, unit inferred, read-out: Anticancer MTT IC50): 357 nM; IC50 (NCI-H460 cells [1]; NCI-H460, Table 5, H460 cells, compounds of Table 2, read-out: IC50): 157 nM; GI50 (NCI-H460 cells [2]; NCI-H460, Table 4, 24 h treatment, unit inferred): 11 nM; SI (selectivity index, CC50/EC50) (HCMV; listed as digitoxin): 120
5 | α-D-Amicetose |  |  |  |  |  |  |  |  | 37.5 ± 0.52 | 1110 ± 273 | 
6 | α-D-Rhamnose |  |  |  |  |  |  |  |  | 26.6 ± 0.88 | 2270 ± 551 | 
